The test system of the assay is Nrf2 transcriptional activity (pARE-Luc reporter) in HepG2 cells. The experiment in a line: In vitro Nrf2 transcriptional activity measurement by ARE-dependent reporter assay in HepG2 cell. Type of assay: cell-based, human. Conditions: Homo sapiens; HepG2 cells transfected with pARE-Luc, 4 hours at 37° C.; luciferase activity of Example 1-54 or Example 17-23 at 3.75 μM defined as 100%. The method in brief: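 HepG2 cells transfected with pGL4.37 (pARE-Luc), replated onto compound and incubated 4 h at 37° C; luciferase read by Bright-Glo luminescence. Response normalized to 100% set by a reference compound at 3.75 μM; EC50 from dose-response curve.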
For orientation: Reporter assays use an easily measured gene product as a stand-in for the process of interest.
For `Cn1cc(-c2cc(Cl)c(C(=O)N3COc4c(cccc4-c4cc(N5C6CCC5COC6)c(C(=O)O)cc4F)C3)c(Cl)c2)c2nccnc21` [Compound 3-21, 4-[3-[2,6-Dichloro-4-(5-methylpyrrolo[2,3-b]pyrazin-7-yl)benzoyl]-2,4-dihydro-1,3-benzoxazin-8-yl]-5-fluoro-2-(3-oxa-8-azabicyclo[3.2.1]octan-8-yl)benzoic acid], the midpoint of the response, the EC50, lay at 6.4 nM. In other words, the single-digit nanomolar range.

For `O=C(O)c1cc(F)c(-c2cccc3c2OCN(C(=O)c2c(Cl)cc(-c4cnc5n4CCC5)cc2Cl)C3)cc1N1C2CCC1COC2` [Compound 3-22, 4-[3-[2,6-Dichloro-4-(6,7-dihydro-5H-pyrrolo[1,2-a]imidazol-3-yl)benzoyl]-2,4-dihydro-1,3-benzoxazin-8-yl]-5-fluoro-2-(3-oxa-8-azabicyclo[3.2.1]octan-8-yl)benzoic acid], the EC50 – broadly, the concentration at which the effect is half-maximal – came out at 21 nM.

The molecule `O=C(O)c1cc(F)c(-c2cccc3c2OCN(C(=O)c2c(Cl)cc(-c4cc5ccccc5o4)cc2Cl)C3)cc1N1C2CCC1COC2` [Compound 3-23, 4-[3-[4-(1-Benzofuran-2-yl)-2,6-dichlorobenzoyl]-2,4-dihydro-1,3-benzoxazin-8-yl]-5-fluoro-2-(3-oxa-8-azabicyclo[3.2.1]octan-8-yl)benzoic acid] came in with a 50% effective concentration (EC50) of 21 nM.

On to `O=C(O)c1cc(F)c(-c2cccc3c2OCN(C(=O)c2c(Cl)cc(-c4cccc5ccoc45)cc2Cl)C3)cc1N1C2CCC1COC2` [Compound 3-24, 4-[3-[4-(1-Benzofuran-7-yl)-2,6-dichlorobenzoyl]-2,4-dihydro-1,3-benzoxazin-8-yl]-5-fluoro-2-(3-oxa-8-azabicyclo[3.2.1]octan-8-yl)benzoic acid], for which the concentration giving a half-maximal response (EC50) came out at 31 nM.

As to `O=C(O)c1cc(F)c(-c2cccc3c2OCN(C(=O)c2c(Cl)cc(-c4cncc5ccoc45)cc2Cl)C3)cc1N1C2CCC1COC2` [Compound 3-25, 4-[3-(2,6-Dichloro-4-furo[3,2-c]pyridin-7-ylbenzoyl)-2,4-dihydro-1,3-benzoxazin-8-yl]-5-fluoro-2-(3-oxa-8-azabicyclo[3.2.1]octan-8-yl)benzoic acid], the EC50 was 7.7 nM.

Regarding `COc1ncc(-c2cc(Cl)c(C(=O)N3COc4c(cccc4-c4cc(N5C6CCC5COC6)c(C(=O)O)cc4F)C3)c(Cl)c2)c2nn(C)nc12` [Compound 3-26, 4-[3-[2,6-Dichloro-4-(4-methoxy-2-methyltriazolo[4,5-c]pyridin-7-yl)benzoyl]-2,4-dihydro-1,3-benzoxazin-8-yl]-5-fluoro-2-(3-oxa-8-azabicyclo[3.2.1]octan-8-yl)benzoic acid], the response was half-maximal at 9.8 nM (EC50).

`COc1ncc(-c2cc(Cl)c(C(=O)N3COc4c(cccc4-c4cc(N5C6CCC5COC6)c(C(=O)O)cc4F)C3)c(Cl)c2)c2nnn(C)c12` [Compound 3-27, 4-[3-[2,6-Dichloro-4-(4-methoxy-3-methyltriazolo[4,5-c]pyridin-7-yl)benzoyl]-2,4-dihydro-1,3-benzoxazin-8-yl]-5-fluoro-2-(3-oxa-8-azabicyclo[3.2.1]octan-8-yl)benzoic acid] displayed an EC50 of 8.8 nM.

`COCCn1cc(-c2cc(Cl)c(C(=O)N3COc4c(cccc4-c4ccc(C(=O)O)c(N5CCOCC5)c4)C3)c(Cl)c2)cn1` [Compound 3-28, 4-[3-[2,6-Dichloro-4-[1-(2-methoxyethyl)pyrazol-4-yl]benzoyl]-2,4-dihydro-1,3-benzoxazin-8-yl]-2-morpholin-4-ylbenzoic acid]: it took 2.1 nM to reach a half-maximal effect (EC50). This EC50 lies about 4.2-fold lower than the previous one.

For the molecule `COC1CN(c2cc(Cl)c(C(=O)N3COc4c(cccc4-c4cc(N5C6CCC5COC6)c(C(=O)O)cc4F)C3)c(Cl)c2)C1` [Compound 4-1, 4-[3-[2,6-Dichloro-4-(3-methoxyazetidin-1-yl)benzoyl]-2,4-dihydro-1,3-benzoxazin-8-yl]-5-fluoro-2-(3-oxa-8-azabicyclo[3.2.1]octan-8-yl)benzoic acid], the EC50 amounted to 3.1 nM.
